“Also recorded” adds a separate entry of the source.
What was measured:
[1] = system: hsp90α; assay: Export and extracellular localization of hsp90α from serum-starved T47D cells (immunoblot of medium); type: cell-based
Excerpt: Previous reports have shown that the inducible isoform hsp90α, but not hsp90β, can be secreted and found on the surface of cancer cells, although it lacks the classical signal sequence (Eustace, B. K., et al., Nat Cell Biol., 6:507-14 (2004); Eustace, B. et al., Cell Cycle., 3:1098-1100 (2004)). […] Concentrated extra-cellular medium or cell lysates from T47D cells, which were either serum-starved or cultured in 10% FBS, were immunoblotted with anti-hsp90α antibody. β-actin served as a loading control. Under starvation, both endogenous and exogenous hsp90α are secreted from T47D cells in the acetylated form. Extra-cellular hsp90α was immunoprecipitated with anti-AcK antibody and immunoblotted with either anti-hsp90α or M2 antibody.
To further verify this, the export and extracellular location of acetylation mimetic (K/Q) or acetylation-resistant (K/R) mutants transfected into T47D cells that were cultured under serum-free condition were determined. In serum-starved T47D cells, K/R substitutions at K69, K100 and K558 decrease, while K/Q substitutions increase the level of extracellular hsp90α. Supernatants of serum starved T47D cells transfected with the F-tagged hsp90α mutant constructs K69Q, K100Q, K292Q, K327Q, K478Q, K546Q, and K558Q were concentrated and immunoblotted with anti-F antibody. Coomassie-stained non-specific proteins served as the loading control. […]

[2] = system: hsp90α; assay: Acetylation of hsp90α in MB-231 cells (immunoblot with anti-AcK69-hsp90α antibody); type: cell-based; conditions: MB-231 cells treated with LBH589
Excerpt: Next, a polyclonal antibody was generated against the acetylated K69-containing peptide of hsp90α (anti-Ac-K69). The specificity of the antibody was confirmed by determining its ability to detect the increase in the acetylation of the ectopically expressed […] hsp90α following treatment with the HDAC inhibitor LBH589. MB-231 cells were transfected with F-hsp90α followed by the treatment with LBH589. Immunoprecipitates of F-hsp90α with anti-M2 conjugated beads were immunoblotted with anti-K69-hsp90α antibody for the acetylation status and anti-F antibody for F-hsp90α expression. Cells transfected with empty vector followed the treatment with LBH589 served as control for specificity. Acetylation of endogenous hsp90αinduced by LBH589 was also detected with anti-AcK69-hsp90α antibody. Immunoprecipitates of endogenous hsp90α with anti-hsp90α antibody from cell lysates of MB-231 cells treated with or without LBH589 were immunoblotted with either anti-AcK69-hsp90α or anti-hsp90α (rabbit) antibody. IgG served as the control for specificity of the immunoprecipitates.

[3] = system: MB-231 cells; assay: In vitro matrigel invasion assay, MB-231 cells; type: cell-based; conditions: 10, 20, 40 nM LBH589 (FIG. 1A)
Experimental: In vitro invasion assay were performed, as previously described 12, 27 by using the Cultrex® Cell Invasion Assay kit (RandD Systems, Minneapolis, Minn.). In brief, serumstarved cells in 50 μL serum-free medium with or without antibody or IgG were placed in the top chamber and allowed to invade for 24 hours. The lower chambers (assay chamber) were filled with 10% FBS medium. After incubation, migrated cells on the […] chamber of the membrane were dissociated with cell dissociation solution containing Calcein AM at 37° C. for 1 hour and read the bottom plate at 485 nm excitation and 520 nm emission.
The effect of anti-hsp90α with anti-Ac-K69 hsp90α antibody on the in vitro invasiveness of MB-231 breast cancer cells was compared. Serum-starved MB-231 cells treated with 20 μg/mL anti-hsp90α or anti-AcK69 hsp90α antibody were used for determining in vitro matrigel invasion (see Example 4 for protocol). Untreated cells, or cells treated with IgG were used as controls.

[4] = system: acetylated hsp90α; assay: Confocal microscopy of membrane-associated acetylated hsp90α, MB-231 cells; type: cell-based; conditions: serum-starved MB-231 cells, 40 nM LBH589 for 16 hours, anti-Ac-K69 staining
Experimental: MDA-MB-231 cells were cultured in a chamber slide in RPMI medium with 10% FBS or under serum-free conditions with or without 40 nM LBH589 for 16 hours and stained with anti-acetyl (Ac)-[…] antibody. Briefly, after 16 hours incubation, cells were washed with PBS and fixed with 4% paraformaldehyde for 10 minutes. Following this, the slides were blocked with 3% BSA for 30 minutes and incubated with primary antibody at a dilution of 1:100 in blocking buffer for 2 hours. Following three washes with PBS the slides were incubated in Alexa Fluor 488 anti-rabbit secondary antibody (Molecular probes, Invitrogen) for one hour at 1:3000 dilution. After three washes with PBS, the cells were counterstained with DAPI using Vectashield mountant with DAPI and imaged using Zeiss LSM510 confocal microscope. […] Serum-starved MB-231 cells were treated with 40 nM LBH589 for 16 hours, followed by staining with anti-AcK69 hsp90α antibody and confocal microscopy. Cells cultured in RPMI with 10% FBS and cells stained with rabbit IgG served as controls.

[5] = system: acetylated hsp90α with MMP-2; assay: Extracellular co-immunoprecipitation of acetylated hsp90α with MMP-2, MDA-MB-231 supernatant; type: cell-based; conditions: supernatant of serum starved LBH treated MDA-MB-231 cells
Experimental: Supernatant of serum starved LBH treated MDA-MB-231 cells was concentrated and immunoprecipitates with anti-hsp90α antibody were immunoblotted with anti-AcK, anti-MMP-2 or hsp90α antibody. […] Whether increased extracellular location of K69Q, K100Q or K558Q mutant promotes in vitro invasiveness of breast cancer cells was determined. For this, stable transfectants of MB-468 cells expressing the wild-type hsp90α we created, or the K/Q or K/R mutants of hsp90α at the residues K69, K100 and K558, and their in vitro invasiveness in the matrigel-based assay was evaluated.

[6] = molecular target: T1, hsp90α (Homo sapiens, UniProt P07900); assay: Biotinylated-geldanamycin (B-GA) binding assay, MDA-MB-468 cell lysates
T1 construct: acetylation of the endogenous hsp90α due to treatment with LBH589; endogenous in cells; host or cells: MDA-MB-468
Experimental: (§1) Biotinylated (B)-GA binding to hsp90 was assessed as described previously 26. Briefly, cell-lysates were incubated with or without 17-AAG (Developmental Therapeutics Branch of CTEP/NCI/NIH) for 1 hour at 4° C., and then incubated with B-GA to displace 17-AAG from hsp90 for another 1 h. GM-bound hsp90 was captured by biotin-GA linked to streptavidin Mutein Matrix (Roche Diagnostics, Indianapolis, Ind.) for 1 h at 4° C. The unbound supernatant was removed and the beads were washed three times with lysis buffer. The precipitates were immunoblotted for hsp90.
Cell lysates containing hsp90α and ATP-sepharose were also incubated with B-GA followed by streptavidin coated agarose beads and eluted proteins were analyzed with anti-F antibody. […] MB-468 cells cultured in DMEM medium containing 10% FBS were treated with the indicated concentration of LBH589 for 16 hours. Following this, cell lysates were incubated with B-GA followed by streptavidin coated agarose beads and eluted proteins were analyzed with anti-hsp90α antibody. Acetylation and expression level of endogenous hsp90 were detected with anti-AcK and anti-hsp90 antibody, respectively.
MB-468 cells ectopically expressing F-hsp90α were treated with 100 nM of LBH589 for 16 hours. Following this, equal amount of cell lysates were incubated with 0, 5, 10 or 50 nM of 17-AAG for 30 min at 4° C., followed by incubation with B-GA and streptavidin-coated agarose beads. Precipitates from streptavidin coated beads were analyzed with anti-F antibody.

[7] = system: K/R mutants of hsp90α; assay: B-GA binding assay, HEK293 lysates expressing F-hsp90 K/R substitutions
Experimental: as §1
Following treatment with either vehicle or 100 nM of LBH, cell lysates from HEK293 cells expressing F-hsp90 or K/R substitutions were incubated with vehicle or 50 nM of 17-AAG followed by incubation with B-GA and streptavidin coated agarose beads. Precipitates from streptavidin coated beads were analyzed with anti-F antibody.

[8] = system: F-hsp90α; assay: Acetylation of F-hsp90α in HEK293 cells (immunoprecipitation, anti-AcK immunoblot); type: cell-based; conditions: HEK293 cells with ectopic expression of FLAG (F)-hsp90α
Experimental: Following culture in the plates for 24 hours, cells were transfected by Lipofectamine Plus following the protocol provided by Invitrogen (Carlsbad, Calif.). Transfected cells were cultured in full-medium containing drugs dissolved in DMSO or vehicle for 24 hours. Cellular extracts were prepared by directly adding lysis buffer (25 mM Tris-phosphate, pH 7.8, 2 mM DTT, 2 mM 1,2-diaminocyclohexane-N′,N′,N′,N′-tetraacetic acid, 10% glycerol, 0.2% Triton X-100) to the cells on ice. For immuno-precipitations (IP), 2×10^6 cells in 100 mm dishes were transfected and/or treated as described above. Cellular extracts were prepared and immunoprecipitation performed as described 24. For immunoblotting, cellular extracts or immunoprecipitates were separated on SDS-PAGE, transferred to a nitrocellulose membrane, probed with antibodies, and visualized with enhanced chemiluminescence, as described (Chen, Z., et al., Mol. Pharmacol., 69:1527-33 (2006)).
Hsp90 is acetylated both in vitro and in vivo. […] To determine whether p300 acts as the HAT for hsp90α, following incubation with p300 and acetyl-CoA, in vitro translated hsp90α was analyzed for its acetylation status by Western analysis with anti-AcK antibody. p300 was necessary for the acetylation of hsp90α in the in vitro assay. […] In HEK293 cells, it was determined that p300 can be coimmunoprecipitated with hsp90α. […]

B-GA binding of hsp90α ([6]; MDA-MB-468 cells treated with LBH589 for 16 hours)	B-GA binding of K/R mutants of hsp90α ([7]; HEK293 cells, 100 nM LBH)	Molecule	export and extracellular location of K/R mutants of hsp90α ([1]; serum-starved T47D cells transfected with K/R mutants, cotreatment with LBH589)	export and extracellular localization of hyper-acetylated hsp90α ([1]; serum-starved T47D cells, 0, 25, 50 or 100 nM LBH589)	acetylated hsp90α detected by anti-Ac-K69 hsp90α antibody [2]	matrigel invasion by MB-231 cells [3]	levels of membrane associated acetylated hsp90α [4]	extra-cellular binding of acetylated hsp90α with MMP-2 [5]	17-AAG binding to acetylated endogenous hsp90 ([6]; MDA-MB-468 cells, 100 nM LBH589 for 16 hours, then lysates with 0, 5, 10 or 50 nM 17-AAG)	acetylation of F-hsp90α [8]	displacement of B-GA binding to hsp90 ([6]; lysates incubated with 0, 5, 10 or 50 nM 17-AAG for 30 min at 4° C., cells exposed or unexposed to LBH589)	17-AAG binding to K/R mutants (displacement of B-GA) ([7]; HEK293 lysates after 100 nM LBH, 50 nM 17-AAG)
increase in B-GA binding of hsp90α	increased binding to B-GA	Cc1[nH]c2ccccc2c1CCNCc1ccc(/C=C/C(=O)NO)cc1 [LBH589]	increased the export and extracellular location of K/R mutants of hsp90α to a variable extent; also recorded: promote extracellular localization of K/R mutants of hsp90α	promoted and increased the export and extracellular localization of hyper-acetylated hsp90α; also recorded: occurs in a dose dependent manner	increase in the acetylated hsp90α	dose dependently increased matrigel invasion	increased levels of the membrane associated acetylated hsp90α	increased extra-cellular binding of acetylated hsp90α with MMP-2	promoted 17-AAG binding to the acetylated endogenous hsp90	hyper-acetylation of F-hsp90α		
		O=C(CCCCCCC(=O)Nc1ccccc1)NO [vorinostat]								hyper-acetylation of F-hsp90α		
		17-allylamino-17-demethoxygeldanamycin [17-AAG]									B-GA binding to hsp90 was reduced by 17-AAG treatment	decreased binding of K/R mutants to 17-AAG
